From patent US20130190407A1, “CALCIUM RECEPTOR-ACTIVE MOLECULES” (NPS Pharmaceuticals, Inc., priority 1991, published 2013) come the findings set out here.

Common to all, as to type: cell-based
Test [1] deals with T1, human parathyroid cell calcium receptor (Homo sapiens, UniProt P41180, E1011Q/Q926R).
T1 construct: appear to be full-length clones corresponding to the 5 Kb mRNA; expressed in transfected cells; host or cells: Xenopus laevis oocytes injected with pHuPCaR 5.2
T1 sequence (P41180 20-1088 isoform P41180-2 Q936R/E1021Q): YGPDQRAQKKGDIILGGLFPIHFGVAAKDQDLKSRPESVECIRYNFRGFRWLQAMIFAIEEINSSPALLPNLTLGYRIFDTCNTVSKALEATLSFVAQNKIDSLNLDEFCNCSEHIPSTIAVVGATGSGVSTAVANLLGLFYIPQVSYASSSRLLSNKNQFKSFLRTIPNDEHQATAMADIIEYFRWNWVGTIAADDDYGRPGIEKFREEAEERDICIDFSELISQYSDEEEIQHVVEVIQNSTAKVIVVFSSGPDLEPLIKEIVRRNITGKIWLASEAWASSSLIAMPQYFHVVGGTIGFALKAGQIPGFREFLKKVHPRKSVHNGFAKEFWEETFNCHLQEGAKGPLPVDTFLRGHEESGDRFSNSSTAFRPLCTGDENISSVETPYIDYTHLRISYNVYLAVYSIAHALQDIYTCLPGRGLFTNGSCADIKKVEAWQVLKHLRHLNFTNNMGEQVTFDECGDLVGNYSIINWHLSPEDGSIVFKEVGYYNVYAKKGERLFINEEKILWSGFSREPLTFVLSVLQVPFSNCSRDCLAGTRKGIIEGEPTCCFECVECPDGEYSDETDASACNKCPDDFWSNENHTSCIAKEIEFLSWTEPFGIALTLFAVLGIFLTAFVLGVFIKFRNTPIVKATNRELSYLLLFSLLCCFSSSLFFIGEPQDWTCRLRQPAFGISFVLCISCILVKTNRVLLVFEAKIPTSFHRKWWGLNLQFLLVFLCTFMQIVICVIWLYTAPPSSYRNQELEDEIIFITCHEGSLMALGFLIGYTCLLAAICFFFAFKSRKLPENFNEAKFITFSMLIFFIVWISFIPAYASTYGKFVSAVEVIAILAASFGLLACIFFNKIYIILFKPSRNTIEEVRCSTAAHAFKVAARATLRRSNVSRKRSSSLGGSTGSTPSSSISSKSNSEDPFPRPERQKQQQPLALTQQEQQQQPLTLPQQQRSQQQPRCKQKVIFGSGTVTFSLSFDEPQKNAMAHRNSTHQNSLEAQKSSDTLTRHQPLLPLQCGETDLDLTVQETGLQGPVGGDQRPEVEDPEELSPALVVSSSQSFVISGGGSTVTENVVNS
The test can be described thus: Cl- current in Xenopus oocytes injected with pHuPCaR 5.2. Particulars: 3 to 30 μM; 0.3 mM extracellular Ca2+. On the procedure:
Xenopus oocytes were injected with pHuPCaR 5.2, the 5.2 Kb cDNA encoding a parathyroid cell calcium receptor derived from a human parathyroid cell adenoma. (See Example 27.) After two to three days, Cl^− currents were measured in the oocytes using a two-electrode voltage clamp.

For test [2], the target named is T2, osteoclast calcium receptor (Rattus norvegicus, UniProt P48442).
T2 sequence (P48442 20-1079): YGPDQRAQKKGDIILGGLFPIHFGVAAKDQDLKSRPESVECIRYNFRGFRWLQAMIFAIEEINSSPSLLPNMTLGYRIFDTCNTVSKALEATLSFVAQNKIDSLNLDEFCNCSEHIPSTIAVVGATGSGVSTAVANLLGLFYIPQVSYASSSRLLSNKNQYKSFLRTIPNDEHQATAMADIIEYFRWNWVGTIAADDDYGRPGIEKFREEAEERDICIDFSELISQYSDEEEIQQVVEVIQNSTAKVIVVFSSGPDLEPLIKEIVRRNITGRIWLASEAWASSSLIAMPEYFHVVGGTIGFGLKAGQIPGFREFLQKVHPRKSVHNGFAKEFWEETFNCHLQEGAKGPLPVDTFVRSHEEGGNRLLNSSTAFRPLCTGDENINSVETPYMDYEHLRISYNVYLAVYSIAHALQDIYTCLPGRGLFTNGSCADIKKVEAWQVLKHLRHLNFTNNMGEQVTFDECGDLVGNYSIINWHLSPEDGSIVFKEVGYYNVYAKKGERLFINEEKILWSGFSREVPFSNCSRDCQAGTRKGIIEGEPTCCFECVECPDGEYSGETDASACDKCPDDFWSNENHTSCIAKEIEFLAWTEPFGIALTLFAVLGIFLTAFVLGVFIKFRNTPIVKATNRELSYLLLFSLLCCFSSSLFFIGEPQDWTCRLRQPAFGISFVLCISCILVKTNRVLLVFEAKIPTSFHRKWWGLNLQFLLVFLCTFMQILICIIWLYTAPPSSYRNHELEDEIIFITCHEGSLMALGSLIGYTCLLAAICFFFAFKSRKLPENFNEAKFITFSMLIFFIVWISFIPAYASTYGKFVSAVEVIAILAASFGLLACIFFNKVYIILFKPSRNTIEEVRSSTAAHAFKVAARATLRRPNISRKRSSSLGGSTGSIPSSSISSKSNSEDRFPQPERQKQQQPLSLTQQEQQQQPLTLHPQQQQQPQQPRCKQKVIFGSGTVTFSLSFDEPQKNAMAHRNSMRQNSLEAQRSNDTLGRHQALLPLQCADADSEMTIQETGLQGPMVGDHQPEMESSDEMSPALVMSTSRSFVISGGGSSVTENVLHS
The test can be described thus: [Ca2+]i (indo-1) in single rat osteoclasts. Particulars: Table 6; rat osteoclasts, indo-1.

For test [3], the target named is T3, bovine parathyroid cell calcium receptor (Bos taurus, UniProt P35384).
T3 construct: isolation of a single clone (BoPCaR 1) with a cDNA insert of 5.3 kb; expressed in transfected cells
T3 sequence (P35384 20-1085): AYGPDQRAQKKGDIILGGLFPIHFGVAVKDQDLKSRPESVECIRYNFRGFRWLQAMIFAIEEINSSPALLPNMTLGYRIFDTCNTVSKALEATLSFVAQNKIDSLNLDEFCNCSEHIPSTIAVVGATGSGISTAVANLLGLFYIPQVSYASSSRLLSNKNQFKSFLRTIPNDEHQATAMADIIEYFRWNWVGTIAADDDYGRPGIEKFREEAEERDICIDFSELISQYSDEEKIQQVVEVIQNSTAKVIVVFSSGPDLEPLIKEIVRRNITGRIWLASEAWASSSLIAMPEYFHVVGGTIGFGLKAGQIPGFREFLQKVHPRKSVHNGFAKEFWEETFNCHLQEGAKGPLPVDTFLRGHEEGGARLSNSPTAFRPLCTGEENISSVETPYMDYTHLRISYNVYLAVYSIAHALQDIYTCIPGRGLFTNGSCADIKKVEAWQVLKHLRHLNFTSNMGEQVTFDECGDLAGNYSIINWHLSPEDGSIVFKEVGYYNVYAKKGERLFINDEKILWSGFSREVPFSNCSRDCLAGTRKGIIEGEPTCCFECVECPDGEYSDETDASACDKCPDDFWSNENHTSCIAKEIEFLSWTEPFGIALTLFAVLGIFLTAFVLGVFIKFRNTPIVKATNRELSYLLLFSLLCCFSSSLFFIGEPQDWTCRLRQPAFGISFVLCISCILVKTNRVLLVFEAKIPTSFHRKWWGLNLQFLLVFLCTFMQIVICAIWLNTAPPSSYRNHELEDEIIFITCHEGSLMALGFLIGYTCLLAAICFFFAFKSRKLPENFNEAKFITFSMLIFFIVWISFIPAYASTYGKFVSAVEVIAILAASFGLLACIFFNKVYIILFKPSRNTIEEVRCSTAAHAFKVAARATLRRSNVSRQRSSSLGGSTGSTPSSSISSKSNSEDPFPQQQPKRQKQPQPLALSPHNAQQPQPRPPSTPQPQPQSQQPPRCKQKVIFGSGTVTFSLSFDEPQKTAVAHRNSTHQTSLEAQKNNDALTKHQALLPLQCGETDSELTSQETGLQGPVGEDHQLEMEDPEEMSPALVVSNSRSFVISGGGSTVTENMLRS
The test can be described thus: Cl- current in Xenopus oocytes injected with BoPCaR 1. The following applies: 1 mM extracellular Ca2+. The procedure: Several pharmacological and biochemical criteria were used to identify this clone as encoding a bona fide bovine parathyroid Ca^2+ receptor. […] These responses increased markedly over a period of one to four days after injection of the eggs with cRNA prepared from the BoPCaR 1 cDNA. Furthermore, the ranges of the concentrations of the two cations eliciting this response were very similar to those shown previously to act on bovine parathyroid cells in vitro.
Xenopus oocytes were injected with BoPCaR 1, the 5.3 Kb cDNA encoding a bovine parathyroid cell calcium receptor as described in Example 25. After two to three days, Cl^− currents were examined in the oocytes using a two-electrode voltage clamp.
Xenopus oocytes were injected with BoPCaR 1 as described in Example 25. After two to three days, Cl^− currents were examined in the oocytes using two electrode voltage clamp.

Test [4] relates to Bovine parathyroid cells. The test can be described thus: PTH secretion from bovine parathyroid cells. The following applies: concentrations that mobilize intracellular Ca2+. On the procedure:
PTH secretion was measured by first suspending cells in PCB containing 0.5 mM CaCl2 and 0.1% BSA.
Counting of samples and data reduction were performed on a Packard Cobra 5005 gamma counter.

Test [5] relates to Bovine parathyroid cells. The test can be described thus: Inositol phosphate formation in bovine parathyroid cells. On the procedure: After 30 seconds, the reaction was terminated by the addition of CHCl3:MeOH:HCl and IP1 (circles) and IP3 (triangles) separated by anion exchange chromatography. Each point is the mean of 2 experiments, each performed in triplicate.
This section describes procedures measuring inositol phosphate formation. Membrane phospholipids were labeled by incubating parathyroid cells with 4 μCi/ml ^3H-myo-inositol for 20-24 hours. Cells were then washed and resuspended in PCB containing 0.5 mM CaCl2 and 0.1% BSA. Incubations were performed in microfuge tubes in the absence or presence of various concentrations of organic polycation for different times. Reactions were terminated by the addition of 1 ml chloroform-methanol-12 N HCl (200:100:1; v/v/v). Aqueous phytic acid hydrolysate (200 μl; 25 μg phosphate/tube). The tubes were centrifuged and 600 μl of the aqueous phase was diluted into 10 ml water.
Inositol phosphates were separated by ion-exchange chromatography using AG1-X8 in either the chloride- or formate-form. When only IP3 levels were to be determined, the chloride-form was used, whereas the formate form was used to resolve the major inositol phosphates (IP3, IP2, and IP1). […] The last eluate was diluted and counted. […] The eluted samples from the formate columns were rotary evaporated, the residues brought up in cocktail, and counted.

Test [6] concerns Bovine parathyroid cells. The procedure: This section describes measuring cyclic AMP levels. Cells were incubated as above for PTH secretion studies and at the end of the incubation, a 0.15-ml sample was taken and transferred to 0.85 ml of hot (70° C.) water and heated at this temperature for 5-10 minutes. The tubes were subsequently frozen and thawed several times and the cellular debris sedimented by centrifugation. Portions of the supernatant were acetylated and cyclic AMP concentrations determined by radioimmunoassay.
Bovine parathyroid cells were cultured for 16 hours with or without 100 ng/ml pertussis toxin. […] Each value is the mean±SEM of three experiments.

Regarding `NCCCNCCCCNCCCNCCCNCCCNC(=O)Cc1c[nH]c2ccccc12` [NPS 019], the Cl- current entry in test [1] is given as “evoked increases in the Cl^− current”; in test [3], “oscillatory increases in the Cl^− current”. In addition, the EC50 in test [2] was more than 300 µM.

In the case of protamine, in the test on Bovine parathyroid cells [4], the PTH secretion entry is given as “inhibited PTH secretion to the same extent as extracellular Ca^2+”. Moreover, the “formation of IP3” value in the test with Bovine parathyroid cells [5] is “rapid (within 30 seconds) increase in the formation of IP3”. In addition, the “cyclic AMP (% of control), control” value in the test with Bovine parathyroid cells [6] was 20 ± 4 % of control.

One may read the EC50 as the concentration giving half of the maximal effect.
